From US11702469B2, “Recombinant EGFL7, EGFL7 antibodies, and uses thereof” (Ohio State Innovation Foundation, priority 2017, dated 2023)

Experiments:
HES1 [1] = experiment: DLL4-Fc coated plate NOTCH activation (HES1 qRT-PCR), THP-1; format: cell-based, human
Experimental: (§1) FIG. 24A-24G. EGFL7 prevents activation of NOTCH signaling in AML cells. (FIG. 24A) Overview of experiments using DLL4-FC and IgG-FC control coated plates to induce NOTCH activation. (FIG. 24B) THP-1 cells were pre-treated with 10 μM γ-secretase inhibitor (AVA), 100 μg/ml anti-EGFL7 antibody or 0.25 μM rEGFL7 for 30 min, then transferred to IgG-Fc or DLL4-Fc coated plates. After 4 h of incubation total RNA from THP-1 cells was extracted for qRT-PCR analysis of HES1 with β-ACTIN as internal control. ^###P<0.001 DLL4-FC vs IgG-FC; ***P<0.001 DLL4+AVA, DLL4+rEGFL7, and DLL4+anti-EGFL7 vs DLL4-FC. (FIG. 24C) Primary AML blasts were pretreated with 10 μM γ-secretase inhibitor (AVA), 100 μg/ml anti-EGFL7 antibody or 0.25 μM rEGFL7 for 30 min, then transferred to IgG-Fc or DLL4-Fc coated plates. After 4 h of incubation, total RNA was extracted for RT-PCR analysis of HES1 mRNA with β-ACTIN as internal control. ^###P<0.001 DLL4-Fc vs IgG-Fc; *P<0.05, ***P<0.001 vs DLL4 Fc. THP-1 cells were treated with the indicated concentration of anti-EGFL7 (@E7) then assessed for apoptosis using (FIG. 24D) AnnexinV+ staining and FACS; *P<0.05 (FIG. 24E) Immuno-blotting for PARP1 and Casp3 cleavage. (FIG. 24F) Cell differentiation was assessed by CD11B and CD14 staining 96-hours post anti-EGFL7 treatments; *P<0.05. (FIG. 24G) To determine whether activation of NOTCH by DLL4-Fc could be accentuated by anti-EGFL7 treatment, THP-1 cells were first treated with anti-EGFL7 (100 μg/ml) and then cultured on DLL4-FC or IgG-Fc coated plates and then assessed for apoptosis using AnnexinV+ staining and FACS. *P<0.05 DLL4-Fc and anti-EGFL7; vs DLL4-FC+anti-EGFL7.
Total RNA was extracted using Trizol reagent (Invitrogen, Carlsbad, Calif., USA). cDNA was synthesized using SuperScript III reagents (Invitrogen) according to the manufacturer's instruction. Quantitative Real-Time RT-PCR was performed using commercially available TaqMan Gene Expression Assay primers and the 7900HT Fast Real-Time PCR System (Applied Biosystems, Foster City, Calif., USA). […]

HES1 [2] = experiment: OP9-DLL1 co-culture NOTCH activation (HES1 RT-PCR), THP-1; format: cell-based, human; conditions: THP-1 co-cultured with OP9-DLL1
Description: FIG. 27. EGFL7 prevents NOTCH ligand inactivation of Notch signaling in AML cells. (A) Overview of experiments involving co-culture of THP-1 cells with mouse stromal cells overexpressing DLL1. (B) Total RNA was extracted for RT-PCR analysis of HES1 with β-ACTIN as internal control. ^###P<0.001 OP9-DLL1 vs OP9; *P<0.05, **P<0.01 vs untreated control.
Total RNA was extracted using Trizol reagent (Invitrogen, Carlsbad, Calif., USA). cDNA was synthesized using SuperScript III reagents (Invitrogen) according to the manufacturer's instruction. Quantitative Real-Time RT-PCR was performed using commercially available TaqMan Gene Expression Assay primers and the 7900HT Fast Real-Time PCR System (Applied Biosystems, Foster City, Calif., USA). The expression levels of target genes were normalized to β-ACTIN. Relative expression was calculated by using the comparative 2^−ΔΔct method.
It was next determined whether EGFL7 is inhibiting NOTCH signaling in AML cells by competing with canonical NOTCH ligand binding. To perform these experiments, THP-1 cells were cultured on DLL4-Fc and IgG-Fc (control) coated plates to activate NOTCH signaling. The effect of rEGFL7 and anti-EGFL7 on this DLL4-Fc NOTCH activation was also tested (FIG. 24A). […] For these experiments, co-culture was performed of THP-1 cells with stromal cells (OP9) overexpressing membrane bound DLL1 (OP9-DLL1)^25 (FIG. 27A).

NOTCH signaling = experiment: Gamma-secretase inhibitor on Parsatuzumab induced NOTCH activation, primary blasts; format: cell-based, human
Experimental: as §1, with “(FIG. 24C) Primary AML blasts were pretreated with 10 μM γ-secretase inhibitor (AVA), 100 μg/ml anti-EGFL7 antibody or 0.25 μM rEGFL7 for 30 min, then transferred to IgG-Fc or DLL4-Fc coated plates. After 4 h of incubation, total RNA was extracted for RT-PCR analysis of HES1 mRNA with β-ACTIN as internal control. ^###P<0.001 DLL4-Fc vs IgG-Fc; *P<0.05, ***P<0.001 vs DLL4 Fc.” left out, “DLL4-FC+anti-EGFL7. […]” for “DLL4-FC+anti-EGFL7.”

FLT3-ITD AML = conditions: phase I/II study in AML; cited from earlier work
acute myeloid leukemia = conditions: PSC-833 arm with cytarabine, daunorubicin and etoposide; cited from earlier work

NC(=O)[C@@H](CCC(F)(F)F)N(Cc1ccc(-c2ncon2)cc1F)S(=O)(=O)c1ccc(Cl)cc1 [AVA, Avagacestat]
DLL4-Fc-mediated NOTCH activation (HES1) (HES1 [1]; pre-treated 30 min: 10 μM AVA, 100 μg/ml anti-EGFL7 or 0.25 μM rEGFL7, then 4 h, vs DLL4-FC): significantly reduced
DLL1-mediated NOTCH activation (HES1) (HES1 [2]): significantly reduced
Parsatuzumab induced NOTCH activation (NOTCH signaling): blocked

CCc1nc(C(N)=O)c(Nc2ccc(N3CCC(N4CCN(C)CC4)CC3)c(OC)c2)nc1NC1CCOCC1 [Gilteritinib]
tolerability and safety (FLT3-ITD AML): tolerable, safe

C/C=C/C[C@@H](C)C(=O)[C@H]1C(=O)N[C@@H](C(C)C)C(=O)N(C)CC(=O)N(C)[C@@H](CC(C)C)C(=O)N[C@@H](C(C)C)C(=O)N(C)[C@@H](CC(C)C)C(=O)N[C@@H](C)C(=O)N[C@H](C)C(=O)N(C)[C@@H](CC(C)C)C(=O)N(C)[C@@H](CC(C)C)C(=O)N(C)[C@@H](C(C)C)C(=O)N1C [PSC-833, valspodar]
early deaths (acute myeloid leukemia): excessive early deaths

DLL4-Fc: Recombinant human DLL4 (Fc chimera, ab108557), canonical NOTCH ligand
NOTCH activation assessed by HES1 expression (HES1 [1]; DLL4-Fc vs IgG-Fc coated plates, 4 h): increases in NOTCH activation
